Test results published in patent US10421779B2, “Carbazole compound having anti-virus activity” (priority 2016, dated 2019).
Where two headings read alike, the source gives them in different places.

How the values were obtained:
Format in all cases: cell-based
[1] = system: HCV genotype 1 b (HCV replicon system); test: HCV replicon system genotype 1b, Renilla luciferase activity; conditions: Hepatitis C virus, 72 h, HCV genotype 1b replicon, Rluc, 3 days, read-out: Replicon EC50 1b type
Procedure: (§1) From human liver cells (Huh7.5.1 cell) infected by hepatitis C virus, the anti-virus effects by the compound of the present invention were measured. From HCV genotype 1 b (HCV replicon system), genotype 2a (HCV cell culture system, HCVcc), and genotype 3a, the EC50 values were measured.
In order to measure the EC50 value from HCV genotype 1 b, the degrees of HCV replication inhibitory activities of an experimental compound were measured. The EC50 value was measured by treating the experimental compound with the HCV replicon systems (genotype 1 b) having Renilla luciferase (Rluc) genes and genotype 1 b non-structure genes under various concentration conditions to compare the activity degree of the luciferase after 3 days elapsed time with that of the control.

[2] = system: HCV genotype 2a (HCV cell culture system, HCVcc); test: HCVcc genotype 2a JFH1 (JFH 5a-Rluc) virus in Huh7.5.1 cells, luciferase assay; conditions: Hepatitis C virus, Huh-7.5.1, 72 h, HCV genotype 2a JFH 5a-Rluc, 3 days, read-out: Replicon EC50 2a type
Procedure: as §1
In order to measure the EC50 value from HCV genotype 2a, a luciferase assay was used. A JFH1 clone (JFH 5a-Rluc) virus constructed to have a Renilla luciferase enzyme (Rluc) gene in NS5A protein was infected with Huh7.5.1 cell being a host cell, and then the EC50 value was measured by taking cells grown for 3 days by treating the experimental compound under various concentration conditions, and analyzing the activity degree of the luciferase.

[3] = system: HCV genotype 3a (HCV replicon system); test: HCV replicon system genotype 3a, firefly luciferase activity; conditions: Hepatitis C virus, 72 h, HCV genotype 3a replicon, Fluc, 3 days, read-out: Replicon EC50 3a type
Procedure: as §1
In order to measure the EC50 value from genotype 3a, the value was measured through the luciferase activity. A HCV replicon system having firefly luciferase (Fluc) genes and genotype 3a non-structure genes was used. The HCV replicon system having the genes as described above was used to treat the experimental compound under various concentration conditions, and then 3 days later, the EC50 value was measured by comparing the luciferase activity with that of the control.

[4] = range limits given with own units (pM to nM)

Structure (SMILES) | EC50 [1] | EC50 [2] | EC50 [3] | EC50 [1, 4] | EC50 [3, 4]
CCCCCCCCCCn1c2cc(NC(=O)[C@@H]3CCCN3C(=O)[C@H](NC(=O)OC)c3ccccc3)ccc2c2ccc(NC(=O)[C@@H]3CCCN3C(=O)[C@H](NC(=O)OC)c3ccccc3)cc21 [Example 24, dimethyl ((1R,1′R)-((2S,2′S)-(((9-decyl-9H-carbazole-2,7-diyl)bis(azanediyl))bis(carbonyl))bis(pyrrolidine-2,1-diyl))bis(2-oxo-1-phenylethane-2,1-diyl))dicarbamate] | ~10 pM | 10 to 100 nM | – | – | –
CCCCCCCCCCn1c2cc(NC(=O)[C@@H]3CCCN3C(=O)[C@H](NC(=O)OC)C(C)C)ccc2c2ccc(NC(=O)[C@@H]3CCCN3C(=O)[C@H](NC(=O)OC)C(C)C)cc21 [Example 25, dimethyl ((2R,2′R)-((2S,2′S)-(((9-decyl-9H-carbazole-2,7-diyl)bis(azanediyl))bis(carbonyl))bis(pyrrolidine-2,1-diyl))bis(3-methyl-1-oxobutane-1,2-diyl))dicarbamate] | > 1000 pM | – | – | – | –
CCCCCCCC(c1ccccc1)n1c2cc(NC(=O)[C@@H]3CCCN3C(=O)[C@H](NC(=O)OC)c3ccccc3)ccc2c2ccc(NC(=O)[C@@H]3CCCN3C(=O)[C@H](NC(=O)OC)c3ccccc3)cc21 (stereo partly drawn) [Example 29, dimethyl ((1R,1′R)-((2S,2′S)-(((9-(1-phenyloctyl)-9H-carbazole-2,7-diyl)bis(azanediyl))bis(carbonyl))bis(pyrrolidine-2,1-diyl))bis(2-oxo-1-phenylethane-2,1-diyl))dicarbamate] | 10 to 100 pM | 1 to 10 nM | 10000 to 100000 pM | – | –
CCCCCOc1cccc(Cn2c3cc(NC(=O)[C@@H]4CCCN4C(=O)[C@H](NC(=O)OC)c4ccccc4)ccc3c3ccc(NC(=O)[C@@H]4CCCN4C(=O)[C@H](NC(=O)OC)c4ccccc4)cc32)c1 [Example 30, dimethyl ((1R,1′R)-((2S,2′S)-(((9-(3-(pentyloxy)benzyl)-9H-carbazole-2,7-diyl)bis(azanediyl))bis(carbonyl))bis(pyrrolidine-2,1-diyl))bis(2-oxo-1-phenylethane-2,1-diyl))dicarbamate] | 10 to 100 pM | ~1 nM | 71 pM | – | –
CCCCOc1ccccc1Cn1c2cc(NC(=O)[C@@H]3CCCN3C(=O)[C@H](NC(=O)OC)c3ccccc3)ccc2c2ccc(NC(=O)[C@@H]3CCCN3C(=O)[C@H](NC(=O)OC)c3ccccc3)cc21 [Example 32, dimethyl ((1R,1′R)-((2S,2′S)-(((9-(2-butoxybenzyl)-9H-carbazole-2,7-diyl)bis(azanediyl))bis(carbonyl))bis(pyrrolidine-2,1-diyl))bis(2-oxo-1-phenylethane-2,1-diyl))dicarbamate] | – | 1 to 10 nM | – | 100 to 1000 pM | –
COC(=O)N[C@@H](C(=O)N1CCC[C@H]1C(=O)Nc1ccc2c3ccc(NC(=O)[C@@H]4CCCN4C(=O)[C@H](NC(=O)OC)c4ccccc4)cc3n(CCCCCCCCCCN3CCN(C)CC3)c2c1)c1ccccc1 [Example 33, dimethyl ((1R,1′R)-((2S,2′S)-(((9-(10-(4-methylpiperazine-1-yl)decyl)-9H-carbazole-2,7-diyl)bis(azanediyl))bis(carbonyl))bis(pyrrolidine-2,1-diyl))bis(2-oxo-1-phenylethane-2,1-diyl))dicarbamate] | – | – | – | 100 to 1000 pM | 100 to 1000 pM
CCCCCCOc1ccccc1Cn1c2cc(NC(=O)[C@@H]3CCCN3C(=O)[C@H](NC(=O)OC)c3ccccc3)ccc2c2ccc(NC(=O)[C@@H]3CCCN3C(=O)[C@H](NC(=O)OC)c3ccccc3)cc21 [Example 35, dimethyl ((1R,1′R)-((2S,2′S)-(((9-(2-(hexyloxy)benzyl)-9H-carbazole-2,7-diyl)bis(azanediyl))bis(carbonyl))bis(pyrrolidine-2,1-diyl))bis(2-oxo-1-phenylethane-2,1-diyl))dicarbamate] | ~1000 pM | – | – | – | –
COC(=O)N[C@@H](C(=O)N1CCC[C@H]1C(=O)Nc1ccc2c3ccc(NC(=O)[C@@H]4CCCN4C(=O)[C@H](NC(=O)OC)c4ccccc4)cc3n(Cc3cccc([N+](=O)[O-])c3)c2c1)c1ccccc1 [Example 37, dimethyl ((1R,1′R)-((2S,2′S)-(((9-(3-nitrobenzyl)-9H-carbazole-2,7-diyl)bis(azanediyl))bis(carbonyl))bis(pyrrolidine-2,1-diyl))bis(2-oxo-1-phenylethane-2,1-diyl))dicarbamate] | 14.5 pM | – | 87.4 pM | – | –
COC(=O)N[C@@H](C(=O)N1CCC[C@H]1C(=O)Nc1ccc2c3ccc(NC(=O)[C@@H]4CCCN4C(=O)[C@H](NC(=O)OC)c4ccccc4)cc3n(Cc3cccc(NC(=O)C(C)(C)C)c3)c2c1)c1ccccc1 [Example 38, dimethyl ((1R,1′R)-((2S,2′S)-(((9-(3-pivalamidobenzyl)-9H-carbazole-2,7-diyl)bis(azanediyl))bis(carbonyl))bis(pyrrolidine-2,1-diyl))bis(2-oxo-1-phenylethane-2,1-diyl))dicarbamate] | 35.4 pM | – | 81.9 pM | – | –
COCCOCCOc1cccc(Cn2c3cc(NC(=O)[C@@H]4CCCN4C(=O)[C@H](NC(=O)OC)c4ccccc4)ccc3c3ccc(NC(=O)[C@@H]4CCCN4C(=O)[C@H](NC(=O)OC)c4ccccc4)cc32)c1 [Example 40, dimethyl ((1R,1′R)-((2S,2′S)-(((9-(3-(2-(2-methoxyethoxy)ethoxy)benzyl)-9H-carbazole-2,7-diyl)bis(azanediyl))bis(carbonyl))bis(pyrrolidine-2,1-diyl))bis(2-oxo-1-phenylethane-2,1-diyl))dicarbamate] | 10 to 100 pM | – | – | – | –
COC(=O)N[C@@H](C(=O)N1CCC[C@H]1C(=O)Nc1ccc2c3ccc(NC(=O)[C@@H]4CCCN4C(=O)[C@H](NC(=O)OC)c4ccccc4)cc3n(Cc3ccccc3C(F)(F)F)c2c1)c1ccccc1 [Example 43, dimethyl ((1R,1′R)-((2S,2′S)-(((9-(2-(trifluoromethyl)benzyl)-9H-carbazole-2,7-diyl)bis(azanediyl))bis(carbonyl))bis(pyrrolidine-2,1-diyl))bis(2-oxo-1-phenylethane-2,1-diyl))dicarbamate] | ~10 pM | > 10 nM | – | – | –
CCCCC(CCCC)n1c2cc(NC(=O)[C@@H]3CCCN3C(=O)[C@H](NC(=O)OC)c3ccccc3)ccc2c2ccc(NC(=O)[C@@H]3CCCN3C(=O)[C@H](NC(=O)OC)c3ccccc3)cc21 [Example 46, dimethyl ((1R,1′R)-((2S,2′S)-(((9-(nonane-5-yl)-9H-carbazole-2,7-diyl)bis(azanediyl))bis(carbonyl))bis(pyrrolidine-2,1-diyl))bis(2-oxo-1-phenylethane-2,1-diyl))dicarbamate] | ~10 pM | – | – | – | –
COC(=O)N[C@@H](C(=O)N1CCC[C@H]1C(=O)Nc1ccc2c3ccc(NC(=O)[C@@H]4CCCN4C(=O)[C@H](NC(=O)OC)c4ccccc4)cc3n(CC3CCCC3)c2c1)c1ccccc1 [Example 47, dimethyl ((1R,1′R)-((2S,2′S)-(((9-(cyclopentylmethyl)-9H-carbazole-2,7-diyl)bis(azanediyl))bis(carbonyl))bis(pyrrolidine-2,1-diyl))bis(2-oxo-1-phenylethane-2,1-diyl))dicarbamate] | ~10 pM | – | – | – | –
COC(=O)N[C@@H](C(=O)N1CCC[C@H]1C(=O)Nc1ccc2c3ccc(NC(=O)[C@@H]4CCCN4C(=O)[C@H](NC(=O)OC)c4ccccc4)cc3n(CC3CCCCC3)c2c1)c1ccccc1 [Example 48, dimethyl ((1R,1′R)-((2S,2′S)-(((9-(cyclohexylmethyl)-9H-carbazole-2,7-diyl)bis(azanediyl))bis(carbonyl))bis(pyrrolidine-2,1-diyl))bis(2-oxo-1-phenylethane-2,1-diyl))dicarbamate] | 7.41 pM | – | 161 pM | – | –
COC(=O)N[C@@H](C(=O)N1CCC[C@H]1C(=O)Nc1ccc2c3ccc(NC(=O)[C@@H]4CCCN4C(=O)[C@H](NC(=O)OC)c4ccccc4)cc3n(CCc3ccccc3)c2c1)c1ccccc1 [Example 50, dimethyl ((1R,1′R)-((2S,2′S)-(((9-phenethyl-9H-carbazole-2,7-diyl)bis(azanediyl))bis(carbonyl))bis(pyrrolidine-2,1-diyl))bis(2-oxo-1-phenylethane-2,1-diyl))dicarbamate] | 4.34 pM | – | 183 pM | – | –
CCCCn1c2cc(NC(=O)[C@@H]3CCCN3C(=O)[C@@H](NC(=O)OC)C(C)C)ccc2c2ccc(-c3c[nH]c([C@@H]4CCCN4C(=O)[C@@H](NC(=O)OC)C(C)C)n3)cc21 [Example 53, methyl ((S)-1-((S)-2-((9-butyl-7-(2-((S)-1-((methoxycarbonyl)-L-valyl)pyrrolidine-2-yl)-1H-imidazole-4-yl)-9H-carbazole-2-yl)carbamoyl)pyrrolidine-1-yl)-3-methyl-1-oxobutane-2-yl)carbamate] | > 10000 pM | – | – | – | –
